The values below come from patent US5840303A, “Peptides for inducing cytotoxic T lymphocyte responses to hepatitis B virus” (The Scripps Research Foundation, priority 1995, dated 1998).

Each structure is given as a SMILES string. Residues, ends and D or L forms follow the SMILES beside them.

The subject of data set [1] is HBV core specific CTL from PBMC of patients with acute hepatitis B. Particulars: patient.
The subject of data set [2] is autologous target cells pulsed with peptide HBc11-27. The data set can be described thus: Immunodominance of the HBc11-27 CTL epitope in HLA-A2 positive subjects. The format is cell-based, human. Particulars: one of the four chronic patients. The text has this: To assess the immunodominance in the HLA-A2 haplotype of the CTL epitope(s) contained in peptide HBc11-27, eight additional subjects with self-limited acute hepatitis B infection, four patients with chronic active hepatitis B, and eight healthy subjects without evidence of previous exposure to HBV (all HLA-A2 positive) were repeatedly tested.
Patient to patient variations in the pattern of response to the peptide were observed during the course of the illness. The cytolytic activity was generally detectable during the icteric phase when transaminase values were high; in some patients the response was long-lasting, being still detectable when GPT levels had already become normal, and in other subjects the lytic activity became undetectable 2 or 3 weeks after the transaminase peak when GPT levels were still slightly altered.

For `CC(C)C[C@H](NC(=O)[C@@H](NC(=O)[C@H](CO)NC(=O)[C@@H](N)CC(C)C)[C@@H](C)O)C(=O)N1CCC[C@H]1C(=O)N[C@@H](CCC(=O)O)C(=O)N[C@H](C(=O)N[C@H](C(=O)N[C@H](C(=O)N[C@H](C(=O)N[C@@H](CCCNC(=N)N)C(=O)N[C@@H](CCCNC(=N)N)C(=O)N[C@@H](CCCNC(=N)N)C(=O)NCC(=O)N[C@@H](CCCNC(=N)N)C(=O)N[C@@H](CO)C(=O)O)C(C)C)C(C)C)[C@@H](C)O)[C@@H](C)O` [140-155], in data set [1], the “cytotoxic activity of unstimulated PBMC against autologous B-LCL fed with peptide” value is on record as “No cytotoxic activity was observed”.

For the molecule `CC(C)C[C@H](NC(=O)[C@H](CC(C)C)NC(=O)[C@H](CCC(=O)O)NC(=O)[C@@H](NC(=O)[C@@H](NC(=O)[C@H](C)N)[C@@H](C)O)C(C)C)C(=O)N[C@@H](CO)C(=O)N[C@@H](Cc1ccccc1)C(=O)N[C@@H](CC(C)C)C(=O)N1CCC[C@H]1C(=O)N[C@@H](CO)C(=O)N[C@@H](CC(=O)O)C(=O)N[C@@H](Cc1ccccc1)C(=O)N[C@@H](Cc1ccccc1)C(=O)N1CCC[C@H]1C(=O)N[C@@H](CO)C(=O)N[C@H](C(=O)O)C(C)C` [HBc11-27] (H-ATVELLSFLPSDFFPSV-OH), the “cytotoxicity against the relevant peptide sequence” value in data set [2] is recorded as “detectable, though very low levels of cytotoxicity”.
